Measurements from article PMC13114161 (Antibiotics, 2026).
Where two headings read alike, the source gives them in different places. Peptide text beside a SMILES is read from it. * marks the point of attachment. βNA = c1ccc2cc(N*)ccc2c1

Assays:
Assay type in all cases: cell-based, Pseudomonas aeruginosa
[1] = tested on: P. aeruginosa; test: MIC potentiation of antimicrobial agents by EPIs; settings: for Fold difference of antibiotic MIC + TXA01182 / MIC of antibiotic + TXA01182: TXA01182 at […]; for Fold difference of antibiotic MIC + TXA09155 / MIC of antibiotic + TXA09155: TXA09155 at […]; for Fold difference of antibiotic MIC + TXA11114 / MIC of antibiotic + TXA11114: TXA11114 at […];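 for Fold difference of antibiotic MIC + TXA01182: TXA01182 tested at 6.25 µg/mL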;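 for Fold difference of antibiotic MIC + TXA09155: TXA09155 tested at 6.25 µg/mL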; for Fold difference of antibiotic MIC + TXA11114: TXA11114 at 6.25 µg/mL;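 for MIC of antibiotic + TXA01182: TXA01182 tested at 6.25 µg/mL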;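 for MIC of antibiotic + TXA09155: TXA09155 tested at 6.25 µg/mL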; for MIC of antibiotic + TXA11114: TXA11114 at 6.25 µg/mL
Method: In contrast, the activities of gentamicin and imipenem were unchanged in the presence of TXA11114 under the conditions tested. Although gentamicin can be transported by the MexXY efflux system, the absence of potentiation in this assay is not sufficient to draw conclusions regarding MexXY inhibition or overall efflux specificity.
(§1) MIC assays for potentiation of antimicrobial activity against P. aeruginosa were performed as described previously.

[2] = tested on: P. aeruginosa ATCC 27853; test: MIC and levofloxacin potentiation (broth microdilution)
Method: Once synthesized, the three fluorinated EPI analogs (TXA11114, TXA11164 and TXA12027) were first assayed for their antibacterial activities against P. aeruginosa ATCC 27853. They had MICs of 100, >200 and 100 µg/mL, respectively (Table 1). […] Particularly, the inactivity of TXA11164 was surprising as the pKa values of both the amines are similar to that in TXA11114.
as §1

[3] = tested on: P. aeruginosa ATCC 27853 ompH mutants EPIR32, EPIR36, EPIR38; test: microbe, parasite or virus in culture; settings: Pseudomonas aeruginosa
Method: as §1

[4] = tested on: multidrug-resistant P. aeruginosa clinical isolates from the CDC-FDA; test: Levofloxacin MIC potentiation, CDC-FDA isolates; settings: for Levofloxacin MIC fold difference, +EPI / Levofloxacin MIC, +EPI: EPI […] (TXA11114, TXA09155) or 50 μg/mL (MC-04,124, PAβN); for Share of CDC isolates with levofloxacin MIC reduced ≥8-fold (potentiated): TXA11114 […], PAβN and MC-04,124 50 µg/mL
Method: In a comparative study, the levofloxacin-potentiating activity of TXA11114 was evaluated alongside the well-characterized EPIs PAβN and MC-04,124 using P. aeruginosa clinical isolates obtained from the CDC and FDA Antimicrobial Resistance Isolate Bank and the Walter Reed Army Institute of Research (WRAIR). […] While PAβN has been widely studied in laboratory strains, its activity against the CDC/FDA P. aeruginosa panel has been reported only sparingly, limiting direct cross-study comparisons.
as §1

C[C@H]1[C@H](NC(=O)/C(=N\OC(C)(C)C(=O)O)c2csc(N)n2)C(=O)N1S(=O)(=O)O [Aztreonam]
Fold difference of antibiotic MIC + TXA01182 [1]: 4 fold
MIC of antibiotic + TXA01182 [1]: 2 µg/mL
Fold difference of antibiotic MIC + TXA09155 [1]: 4 fold
MIC of antibiotic + TXA09155 [1]: 2 mg/L
Fold difference of antibiotic MIC + TXA11114 [1]: 2 fold

NCC(F)(F)C[C@@H](N)CNC(=O)c1cc2ccc(-c3ccc(F)cc3)cc2[nH]1 [TXA12027, (R)-N-(2,5-diamino-4,4-difluoropentyl)-6-(4-fluorophenyl)-1H-indole-2-carboxamide]
MIC ([2]; Pseudomonas aeruginosa, ATCC27853, EPI alone, ATCC 27853, read-out: EPI MIC): 100 mg/L
LVX MIC (+EPI) ([2]; levofloxacin MIC with EPI at […], ATCC 27853): 1 mg/L

CN(C)c1cc(NC(=O)CNC(C)(C)C)c(O)c2c1C[C@H]1C[C@H]3[C@H](N(C)C)C(O)=C(C(N)=O)C(=O)[C@@]3(O)C(O)=C1C2=O [TGC, tigecycline]
MIC ([2]; ATCC 27853 parent strain (Table S1)): 8 mg/L
MIC ([3]; ATCC27853, EPIR32): 2 mg/L
MIC ([3]; ATCC27853, EPIR36): 2 mg/L
MIC ([3]; ATCC27853, EPIR38): 8 mg/L

C[C@@H](O)[C@H]1C(=O)N2C(C(=O)O)=C(S[C@@H]3CN[C@H](C(=O)N(C)C)C3)[C@H](C)[C@H]12 [MEM, meropenem]
MIC ([2]; Pseudomonas aeruginosa, ATCC27853, ATCC 27853 parent strain (Table S1), read-out: MIC): 1 mg/L
MIC ([3]; ATCC27853, EPIR32): 0.125 mg/L
MIC ([3]; ATCC27853, EPIR36): 0.125 mg/L
MIC ([3]; ATCC27853, EPIR38): 0.5 mg/L

Cotrimoxazole
MIC of antibiotic, No EPI [1]: 256 mg/L
Fold difference of antibiotic MIC + TXA01182 [1]: 16, (>16) fold
MIC of antibiotic + TXA01182 [1]: 16, (>16) μg/mL
Fold difference of antibiotic MIC + TXA09155 [1]: 32 fold
MIC of antibiotic + TXA09155 [1]: 8 mg/L
Fold difference of antibiotic MIC + TXA11114 [1]: 8 fold
MIC of antibiotic + TXA11114 [1]: 32 mg/L

NCC1CNC(C(=O)NC(CCc2ccccc2)C(=O)Nc2ccc3ncccc3c2)C1 (stereo not shown) [MC-04,124]
Levofloxacin MIC fold difference, +EPI ([4]; AR-0229): 1 fold
Levofloxacin MIC, +EPI ([4]; AR-0229): 64 µg/mL
Levofloxacin MIC fold difference, +EPI ([4]; AR-0232): 1 fold
Levofloxacin MIC, +EPI ([4]; AR-0232): 8 µg/mL
Levofloxacin MIC fold difference, +EPI ([4]; AR-0233): 1 fold
Levofloxacin MIC, +EPI ([4]; AR-0233): 4 µg/mL
Levofloxacin MIC fold difference, +EPI ([4]; AR-0234): 1 fold
Levofloxacin MIC, +EPI ([4]; AR-0234): 8 µg/mL
Levofloxacin MIC fold difference, +EPI ([4]; AR-0239): 1 fold
Levofloxacin MIC, +EPI ([4]; AR-0239): 64 µg/mL
Levofloxacin MIC fold difference, +EPI ([4]; AR-0242): 2 fold
Levofloxacin MIC, +EPI ([4]; AR-0242): 4 µg/mL
Levofloxacin MIC fold difference, +EPI ([4]; AR-0244): 1 fold
Levofloxacin MIC fold difference, +EPI ([4]; AR-0246): 1 fold
Levofloxacin MIC, +EPI ([4]; AR-0246): 64 µg/mL
Levofloxacin MIC fold difference, +EPI ([4]; AR-0248): 1 fold
Levofloxacin MIC, +EPI ([4]; AR-0248): 16 µg/mL
Levofloxacin MIC fold difference, +EPI ([4]; AR-0249): 1 fold
Levofloxacin MIC, +EPI ([4]; AR-0249): 64 µg/mL
Levofloxacin MIC fold difference, +EPI ([4]; AR-0252): 1 fold
Levofloxacin MIC, +EPI ([4]; AR-0252): 32 µg/mL
Levofloxacin MIC fold difference, +EPI ([4]; AR-0253): 1 fold
Levofloxacin MIC, +EPI ([4]; AR-0253): 2 µg/mL
Levofloxacin MIC fold difference, +EPI ([4]; AR-0264): 1 fold
Levofloxacin MIC, +EPI ([4]; AR-0264): 64 µg/mL
Share of CDC isolates with levofloxacin MIC reduced ≥8-fold (potentiated) [4]: minimal MIC shifts

NC(N)=NCCC[C@H](NC(=O)[C@@H](N)Cc1ccccc1)C(=O)Nc1ccc2ccccc2c1 [PAβN, phenylalanine-arginine β-naphthylamide] (H-Phe-Arg-βNA)
Levofloxacin MIC fold difference, +EPI ([4]; AR-0229): 1 fold
Levofloxacin MIC, +EPI ([4]; AR-0229): 64 µg/mL
Levofloxacin MIC fold difference, +EPI ([4]; AR-0232): 16 fold
Levofloxacin MIC, +EPI ([4]; AR-0232): 0.5 µg/mL
Levofloxacin MIC fold difference, +EPI ([4]; AR-0233): 1 fold
Levofloxacin MIC, +EPI ([4]; AR-0233): 4 µg/mL
Levofloxacin MIC fold difference, +EPI ([4]; AR-0234): 16 fold
Levofloxacin MIC, +EPI ([4]; AR-0234): 0.5 µg/mL
Levofloxacin MIC fold difference, +EPI ([4]; AR-0239): 8, (8) fold
Levofloxacin MIC, +EPI ([4]; AR-0239): 8, (8) μg/mL
Levofloxacin MIC, +EPI ([4]; AR-0242): 0.5 µg/mL
Levofloxacin MIC fold difference, +EPI ([4]; AR-0244): 1 fold
Levofloxacin MIC fold difference, +EPI ([4]; AR-0246): 1 fold
Levofloxacin MIC, +EPI ([4]; AR-0246): 64 µg/mL
Levofloxacin MIC fold difference, +EPI ([4]; AR-0248): 1 fold
Levofloxacin MIC, +EPI ([4]; AR-0248): 16 µg/mL
Levofloxacin MIC fold difference, +EPI ([4]; AR-0249): 8, (8) fold
Levofloxacin MIC, +EPI ([4]; AR-0249): 8, (8) μg/mL
Levofloxacin MIC fold difference, +EPI ([4]; AR-0252): 32 fold
Levofloxacin MIC, +EPI ([4]; AR-0252): 1 µg/mL
Levofloxacin MIC fold difference, +EPI ([4]; AR-0253): 64 fold
Levofloxacin MIC, +EPI ([4]; AR-0253): 0.031 µg/mL
Levofloxacin MIC fold difference, +EPI ([4]; AR-0264): 1 fold
Levofloxacin MIC, +EPI ([4]; AR-0264): 64 µg/mL
Share of CDC isolates with levofloxacin MIC reduced ≥8-fold (potentiated) [4]: ~ 54%

Nc1nc(/C(=N/O)C(=O)N[C@@H]2C(=O)N3C(C(=O)O)=C(/C=C4\CCN([C@@H]5CCNC5)C4=O)CS[C@H]23)ns1 [Ceftobiprole]
Fold difference of antibiotic MIC + TXA01182 [1]: 1 fold
MIC of antibiotic + TXA01182 [1]: 8 µg/mL
Fold difference of antibiotic MIC + TXA09155 [1]: 8 fold
MIC of antibiotic + TXA09155 [1]: 1 mg/L
Fold difference of antibiotic MIC + TXA11114 [1]: 4 fold
MIC of antibiotic + TXA11114 [1]: 2 mg/L
